According to patent publication US20250221988A1 (Cullgen (Shanghai), Inc., priority 2022, published 2025):
Like-named read-outs stand apart in the source and are kept apart here.

What was measured:
MOLM-13 cells = assay: Cell viability assay (CellTiter-Glo) in MOLM-13 cells; type: cell-based
MV4;11 cells = assay: Cell viability assay (CellTiter-Glo) in MV4;11 cells; type: cell-based; conditions: read-out: MV4
How it was run: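 5000 cells/well in RPMI 1640 or DMEM with 10% FBS, treated with 8- or 12-point 3-fold compound dilutions, with or without gilteritinib (10 nM for MV4;11, 20 nM for MOLM-13). Viability by CellTiter-Glo after three days; IC50 by nonlinear least-squares regression.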

[1] = Homo sapiens, 72 h, MOLM-13 cells, compound alone, three days, read-out: MOLM-13 IC50
[2] = Homo sapiens, MV4-11, 72 h, MV4;11 cells, compound alone, three days, 11 IC50
[3] = MOLM-13 cells, with gilteritinib, three days, read-out: MOLM-13 IC50 (nM) + 10 nM Gil
[4] = MV4;11 cells, with 10 nM gilteritinib, three days, 11 IC50 (nM) + 10 nM Gil

SMILES | IC50 (MOLM-13 cells; [1]) [nM] | IC50 (MV4;11 cells; [2]) [nM] | IC50 (MOLM-13 cells; [3]) [nM] | IC50 (MV4;11 cells; [4]) [nM] | IC50 (MOLM-13 cells; Homo sapiens, MOLM-13, 72 h, read-out: MOLM-13 IC50 (nM)) [nM] | sensitization of AML cells to GSPT1 degraders by FLT3 inhibition (MOLM-13 cells; MOLM-13 cells, with or without 20 nM gilteritinib, 3 days) | IC50 (MOLM-13 cells; read-out: MOLM-13 IC50 (nM) + 10 nM Gil, MOLM-13 cells, with gilteritinib, three days) [nM] | IC50 (MV4;11 cells; Homo sapiens, MV4-11, 72 h, 11 IC50 (nM)) [nM] | IC50 (MV4;11 cells; 11 IC50 (nM) + 10 nM Gil, MV4;11 cells, with 10 nM gilteritinib, three days) [nM]
Cc1cccc2cnn([C@H]3C[C@H](CNc4ccc5c(c4)C(=O)N(C4CCC(=O)NC4=O)C5=O)C3)c12 (stereo partly drawn) [GS-693, 2-(2,6-Dioxopiperidin-3-yl)-5-(((trans-3-(7-methyl-1H-indazol-1-yl)cyclobutyl)methyl)amino)isoindoline-1,3-dione] | > 1000 | > 1000 | 100 to 1000 | 100 to 1000 |  |  |  |  | 
Cc1cccc2cn([C@H]3C[C@H](CNc4ccc5c(c4)C(=O)N(C4CCC(=O)NC4=O)C5=O)C3)nc12 (stereo partly drawn) [GS-694, 2-(2,6-Dioxopiperidin-3-yl)-5-(((trans-3-(7-methyl-2H-indazol-2-yl)cyclobutyl)methyl)amino)isoindoline-1,3-dione] | > 1000 | > 1000 | 100 to 1000 | 100 to 1000 |  |  |  |  | 
O=C1CCC(N2C(=O)c3ccc(NC[C@H]4C[C@H](n5cc(C6CCC(O)CC6)c(C6CC6)n5)C4)cc3C2=O)C(=O)N1 (stereo partly drawn) [GS-701, 5-(((Trans-3-(3-cyclopropyl-4-(4-hydroxycyclohexyl)-1H-pyrazol-1-yl)cyclobutyl)methyl)amino)-2-(2,6-dioxopiperidin-3-yl)isoindoline-1,3-dione] | 100 to 1000 | 10 to 100 | 10 to 100 | 10 to 100 |  |  |  |  | 
O=C1CCC(N2C(=O)c3ccc(NCC4CC(n5cc(-c6cnc7c(NCC(O)CO)cccc7n6)c(C6CC6)n5)C4)cc3C2=O)C(=O)N1 (stereo not drawn) [GS-702, 5-(((trans-3-(3-cyclopropyl-4-(5-((2,3-dihydroxypropyl)amino)quinoxalin-2-yl)-1-pyrazol-1-yl)cyclobutyl)methyl)amino)-2-(2,6-dioxopiperidin-3-yl)isoindoline-1,3-dione] | < 10 | < 10 | < 10 | < 10 |  |  |  |  | 
O=C1CCC(N2C(=O)c3ccc(NC[C@H]4C[C@H](n5cc(C6CCCC(O)C6)c(C6CC6)n5)C4)cc3C2=O)C(=O)N1 (stereo partly drawn) [GS-703, 5-(((Trans-3-(3-cyclopropyl-4-(3-hydroxycyclohexyl)-1H-pyrazol-1-yl)cyclobutyl)methyl)amino)-2-(2,6-dioxopiperidin-3-yl)isoindoline-1,3-dione] | 100 to 1000 | 10 to 100 | 10 to 100 | 10 to 100 |  |  |  |  | 
CN(C)c1nc(-c2cn([C@H]3C[C@H](CNc4ccc5c(c4)C(=O)N(C4CCC(=O)NC4=O)C5=O)C3)nc2C2CC2)ccc1F (stereo partly drawn) [GS-707, 5-(((Trans-3-(3-cyclopropyl-4-(6-(dimethylamino)-5-fluoropyridin-2-yl)-1H-pyrazol-1-yl)cyclobutyl)methyl)amino)-2-(2,6-dioxopiperidin-3-yl)isoindoline-1,3-dione] |  |  |  |  | 10 to 100 | FLT3 inhibition sensitizes AML cells | 10 to 100 | 10 to 100 | < 10
O=C1CCC(N2C(=O)c3ccc(NC[C@H]4C[C@H](n5cc(NC6CCOCC6)c(C6CC6)n5)C4)cc3C2=O)C(=O)N1 (stereo partly drawn) [GS-708, 5-(((Trans-3-(3-cyclopropyl-4-((tetrahydro-2H-pyran-4-yl)amino)-1H-pyrazol-1-yl)cyclobutyl)methyl)amino)-2-(2,6-dioxopiperidin-3-yl)isoindoline-1,3-dione] | > 1000 | > 1000 | 100 to 1000 |  |  |  |  |  | 
O=C1CCC(N2C(=O)c3ccc(NC[C@H]4C[C@H](n5cc(NC6CCC(O)CC6)c(C6CC6)n5)C4)cc3C2=O)C(=O)N1 (stereo partly drawn) [GS-709, 5-(((Trans-3-(3-cyclopropyl-4-((4-hydroxycyclohexyl)amino)-1H-pyrazol-1-yl)cyclobutyl)methyl)amino)-2-(2,6-dioxopiperidin-3-yl)isoindoline-1,3-dione] | > 1000 | > 1000 |  |  |  |  |  |  | 
O=C1CCC(N2C(=O)c3ccc(NC[C@H]4C[C@H](n5cc(-c6cnc7c(NC(CO)CO)cccc7n6)c(C6CC6)n5)C4)cc3C2=O)C(=O)N1 (stereo partly drawn) [GS-710, 5-(((Trans-3-(3-cyclopropyl-4-(5-((1,3-dihydroxypropan-2-yl)amino)quinoxalin-2-yl)-1H-pyrazol-1-yl)cyclobutyl)methyl)amino)-2-(2,6-dioxopiperidin-3-yl)isoindoline-1,3-dione] | 10 to 100 | 10 to 100 | < 10 | < 10 |  |  |  |  | 
Cc1nc(-c2cn(C[C@H]3C[C@H](Nc4ccc5c(c4)C(=O)N(C4CCC(=O)NC4=O)C5=O)C3)nc2C2CC2)ccc1F (stereo partly drawn) [GS-711, 5-((Trans-3-((3-cyclopropyl-4-(5-fluoro-6-methylpyridin-2-yl)-1H-pyrazol-1-yl)methyl)cyclobutyl)amino)-2-(2,6-dioxopiperidin-3-yl)isoindoline-1,3-dione] | > 1000 | > 1000 |  |  |  |  |  |  | 
Cc1cccc(-c2nn([C@H]3C[C@H](CNc4ccc5c(c4)C(=O)N(C4CCC(=O)NC4=O)C5=O)C3)cc2C2CC2)n1 (stereo partly drawn) [GS-713, 5-(((Trans-3-(4-cyclopropyl-3-(6-methylpyridin-2-yl)-1H-pyrazol-1-yl)cyclobutyl)methyl)amino)-2-(2,6-dioxopiperidin-3-yl)isoindoline-1,3-dione] | 100 to 1000 | 10 to 100 | 10 to 100 | 10 to 100 |  |  |  |  | 

Now from value to molecule, other results behind:

IC50 (MOLM-13 cells; [1]) [nM] | IC50 (MV4;11 cells; [2]) [nM] | IC50 (MOLM-13 cells; [3]) [nM] | IC50 (MV4;11 cells; [4]) [nM] | SMILES | IC50 (MOLM-13 cells; Homo sapiens, MOLM-13, 72 h, read-out: MOLM-13 IC50 (nM)) [nM] | sensitization of AML cells to GSPT1 degraders by FLT3 inhibition (MOLM-13 cells; MOLM-13 cells, with or without 20 nM gilteritinib, 3 days) | IC50 (MOLM-13 cells; read-out: MOLM-13 IC50 (nM) + 10 nM Gil, MOLM-13 cells, with gilteritinib, three days) [nM] | IC50 (MV4;11 cells; Homo sapiens, MV4-11, 72 h, 11 IC50 (nM)) [nM] | IC50 (MV4;11 cells; 11 IC50 (nM) + 10 nM Gil, MV4;11 cells, with 10 nM gilteritinib, three days) [nM]
> 1000 | > 1000 |  |  | Cn1nccc1-c1cn([C@H]2C[C@H](CNc3ccc4c(c3)C(=O)N(C3CCC(=O)NC3=O)C4=O)C2)nc1C1CC1 (stereo partly drawn) [GS-690, 5-(((Trans-3-(3′-cyclopropyl-2-methyl-1′H,2H-[3,4′-bipyrazol]-1′-yl)cyclobutyl)methyl)amino)-2-(2,6-dioxopiperidin-3-yl)isoindoline-1,3-dione] |  |  |  |  | 
> 1000 | > 1000 |  |  | Cn1cncc1-c1cn([C@H]2C[C@H](CNc3ccc4c(c3)C(=O)N(C3CCC(=O)NC3=O)C4=O)C2)nc1C1CC1 (stereo partly drawn) [GS-691, 5-(((Trans-3-(3-cyclopropyl-4-(1-methyl-1H-imidazol-5-yl)-1H-pyrazol-1-yl)cyclobutyl)methyl)amino)-2-(2,6-dioxopiperidin-3-yl)isoindoline-1,3-dione] |  |  |  |  | 
10 to 100 | 10 to 100 | < 10 | < 10 | Cn1ccc2nc(-c3cn([C@H]4C[C@H](CNc5ccc6c(c5)C(=O)N(C5CCC(=O)NC5=O)C6=O)C4)nc3C3CC3)ccc21 (stereo partly drawn) [GS-695, 5-(((Trans-3-(3-cyclopropyl-4-(1-methyl-1H-pyrrolo[3,2-b]pyridin-5-yl)-1H-pyrazol-1-yl)cyclobutyl)methyl)amino)-2-(2,6-dioxopiperidin-3-yl)isoindoline-1,3-dione] |  |  |  |  | 
> 1000 | 100 to 1000 | 10 to 100 | 10 to 100 | CC(C)n1ccc2nc(-c3cn([C@H]4C[C@H](CNc5ccc6c(c5)C(=O)N(C5CCC(=O)NC5=O)C6=O)C4)nc3C3CC3)ccc21 (stereo partly drawn) [GS-696, 5-(((Trans-3-(3-cyclopropyl-4-(1-isopropyl-1H-pyrrolo[3,2-b]pyridin-5-yl)-1H-pyrazol-1-yl)cyclobutyl)methyl)amino)-2-(2,6-dioxopiperidin-3-yl)isoindoline-1,3-dione] |  |  |  |  | 
100 to 1000 | 10 to 100 | 10 to 100 | 10 to 100 | Cn1ncc2nc(-c3cn([C@H]4C[C@H](CNc5ccc6c(c5)C(=O)N(C5CCC(=O)NC5=O)C6=O)C4)nc3C3CC3)ccc21 (stereo partly drawn) [GS-699, 5-(((Trans-3-(3-cyclopropyl-4-(1-methyl-1H-pyrazolo[4,3-b]pyridin-5-yl)-1H-pyrazol-1-yl)cyclobutyl)methyl)amino)-2-(2,6-dioxopiperidin-3-yl)isoindoline-1,3-dione] |  |  |  |  | 
100 to 1000 | 100 to 1000 | 10 to 100 | 10 to 100 | CC(C)n1ncc2nc(-c3cn([C@H]4C[C@H](CNc5ccc6c(c5)C(=O)N(C5CCC(=O)NC5=O)C6=O)C4)nc3C3CC3)ccc21 (stereo partly drawn) [GS-700, 5-(((Trans-3-(3-cyclopropyl-4-(1-isopropyl-1H-pyrazolo[4,3-b]pyridin-5-yl)-1H-pyrazol-1-yl)cyclobutyl)methyl)amino)-2-(2,6-dioxopiperidin-3-yl)isoindoline-1,3-dione] |  |  |  |  | 
100 to 1000 | > 1000 | 100 to 1000 | 100 to 1000 | O=C1CCC(N2C(=O)c3ccc(NC[C@H]4C[C@H](n5cc(-c6ccc7c(n6)CCC7O)c(C6CC6)n5)C4)cc3C2=O)C(=O)N1 (stereo partly drawn) [GS-705, 5-(((Trans-3-(3-cyclopropyl-4-(5-hydroxy-6,7-dihydro-5H-cyclopenta[b]pyridin-2-yl)-1H-pyrazol-1-yl)cyclobutyl)methyl)amino)-2-(2,6-dioxopiperidin-3-yl)isoindoline-1,3-dione] |  |  |  |  | 
10 to 100 | 10 to 100 | < 10 | < 10 | NC1CCN(c2ccc3ncc(-c4cn([C@H]5C[C@H](CNc6ccc7c(c6)C(=O)N(C6CCC(=O)NC6=O)C7=O)C5)nc4C4CC4)nc3c2)C1 (stereo partly drawn) [GS-706, 5-(((Trans-3-(4-(7-(3-aminopyrrolidin-1-yl)quinoxalin-2-yl)-3-cyclopropyl-1H-pyrazol-1-yl)cyclobutyl)methyl)amino)-2-(2,6-dioxopiperidin-3-yl)isoindoline-1,3-dione] |  |  |  |  | 
< 10 | < 10 | < 10 | < 10 | O=C1CCC(N2C(=O)c3ccc(NC[C@H]4C[C@H](n5cc(-c6cnc7cc(N8CC(O)C8)ccc7n6)c(C6CC6)n5)C4)cc3C2=O)C(=O)N1 (stereo partly drawn) [GS-712, 5-(((Trans-3-(3-cyclopropyl-4-(6-(3-hydroxyazetidin-1-yl)quinoxalin-2-yl)-1H-pyrazol-1-yl)cyclobutyl)methyl)amino)-2-(2,6-dioxopiperidin-3-yl)isoindoline-1,3-dione] |  |  |  |  | 
